system: PAF-induced aggregation of human thrombocytes; test: Inhibition of PAF-induced blood platelet aggregation in vitro; format: cell-based; conditions: thrombocyte-rich plasma, aggregation induced with PAF 5×10^-8 M, concentration giving a 50% inhibition of aggregation, read-out: PAF-Antag. IC50
Description: 1. Inhibition of blood platelet aggregation in vitro
The PAF-induced aggregation of human thrombocytes in vitro is used to determine PAF-antagonistic activity. To obtain thrombocyte-rich plasma (TRP) blood is taken from an uncongested vein using a plastic syringe containing 3.8% sodium citrate solution. The ratio of sodium citrate solution to blood is 1:9. After careful mixing the citrate blood is centrifuged for 20 minutes at 150 g (1200 rpm). The thrombocyte aggregation is measured using the method devised by Born and Cross (G. V. R. Born and M. J. Cross, J. Physiol. 168, 178 (1963)), by adding an aggregation initiator (PAF) to the TRP with constant stirring.
The test substance is added 2 to 3 minutes before aggregation is initiated in a volume of 10 μl. Either distilled water, ethanol and/or dimethylsulphoxide (each in suitable concentrations) can be used as solvent.
Control mixtures contain corresponding volumes of these solvents. After the initial absorption has been recorded (2 to 3 minutes) aggregation is induced with PAF (5×10^-8 M).
The maximum of the first aggregation wave is used to assess the effects of the substance. The PAF-induced maximum absorption rate (=maximum aggregation×100%) is tested at the same time in a parallel mixture (=control mixture in one of the channels of the two-channel aggregometer) as each test mixture (second channel) and is used as a 100% value.
The aggregation value attained under the effect of the test substance is given as a percentage of the control value, i.e. less than 100% in the case of an inhibition of aggregation and over 100% in the case of an increase.
Each test substance is investigated at concentrations of from 10^-3 to 10^-8 M with a random sampling of n=4 with regard to an inhibitory effect on the PAF-induced thrombocyte aggregation. Then a concentration-activity curve is drawn up using 3 concentrations and the IC50 is determined (concentration giving a 50% inhibition of aggregation).

`COC(=O)c1ccc2c(c1)C(c1ccccc1Cl)=NCC(=O)N2` [compound 29] and `COc1ccc2c(c1)C(c1ccccc1Cl)=NCC(=O)N2` [compound 25] cannot be ordered by IC50: 120 µM for the first, > 100 µM for the second.

`CN1C(=O)CN=C(c2ccccc2Cl)c2cc([N+](=O)[O-])sc21` [compound 13] and `CN1C(=O)CN=C(c2ccccc2Cl)c2cc(Br)sc21` [compound 11] are within 1.5-fold of each other in IC50: 200 µM for the first, 170 µM for the second.

Compared with `O=C1CN=C(c2ccccc2Cl)c2ccsc2N1` [compound 9], `O=C1CN=C(c2ccccc2Cl)c2sccc2N1` [compound 16] is 1.5-fold lower in IC50: 760 µM for the first, 500 µM for the second. The second is the more potent here.

`O=C1CN=C(c2ccccc2)c2cc([N+](=O)[O-])cnc2N1` [compound 8] and `O=C1CN=C(c2ccccc2)c2cc([N+](=O)[O-])ccc2N1` [compound 2] are within 1.5-fold of each other in IC50: 250 µM for the first, 220 µM for the second.

`CCn1nc(C)c2c1C(c1ccccc1)=NCC(=S)N2` [compound 20] and `Cc1nc2c(n1C)C(c1ccccc1)=NCC(=O)N2` [compound 30] cannot be ordered by IC50: 250 µM for the first, > 50 µM for the second.

Going from `O=C1CN=C(c2ccccc2Cl)c2c(sc3c2CCOC3)N1` [compound 26] to `O=C1CN=C(c2ccccc2Cl)c2c(sc3c2CCCS3)N1` [compound 14], the IC50 rises from 79 µM to 234 µM (3-fold). The first is the more potent here.

`O=C1CN=C(c2ccccc2Cl)c2cc(Cl)ccc2N1` [compound 28] and `Cc1ccc2c(c1)C(c1ccccc1Cl)=NCC(=O)N2` [compound 22] cannot be ordered by IC50: > 100 µM for the first, 580 µM for the second.

Going from `CN1C(=O)CN=C(c2ccccc2F)c2cc([N+](=O)[O-])ccc21` [compound 4] to `O=C1CN=C(c2ccccc2Cl)c2cc([N+](=O)[O-])ccc2N1` [compound 3], the IC50 rises from 46 µM to 80 µM (1.7-fold). The first is the more potent here.

`COc1cccc2c1NC(=O)CN=C2c1ccccc1Cl` [compound 27] and `CCc1cc2c(s1)NC(=O)CN=C2c1ccccc1Cl` [compound 10] are within 1.5-fold of each other in IC50: 356 µM for the first, 325 µM for the second.

Compared with `S=C1CN=C(c2ccccc2)c2cc(Cl)ccc2N1` [compound 19], `CN1C(=O)CN=C(c2ccccc2)c2cc(Cl)ccc21` [compound 1] is 2.5-fold lower in IC50: 620 µM for the first, 250 µM for the second. The second is the more potent here.

First: CCC1N=C(c2ccccc2Cl)c2ccsc2NC1=O (centres unmarked) [compound 23]
Second: CCC1N=C(c2ccccc2Cl)c2cc(Br)sc2NC1=O (centres unmarked) [compound 24]
The IC50 of the first is 1.5-fold higher: 810 µM for the first, 530 µM for the second. The second is the more potent here.

Going from `CN1CCN=C(c2ccccc2)c2c(Cl)nsc21` [compound 18] to `CN1CCN=C(c2ccccc2Cl)c2cc(Cl)ccc21` [compound 21], the IC50 rises from 110 µM to 360 µM (3.3-fold). The first is the more potent here.

`Cc1csc2c1C(c1ccccc1)=NCC(=O)N2` [compound 12] and `CN1C(=O)CN=C(c2ccccc2)c2cc([N+](=O)[O-])cnc21` [compound 7] are within 1.5-fold of each other in IC50: 280 µM for the first, 380 µM for the second.

Going from `CCN(CC)CCN1C(=O)CN=C(c2ccccc2F)c2cc(Cl)ccc21` [compound 5] to `CCn1nc(C)c2c1NC(=O)CN=C2c1ccccc1Cl` [compound 15], the IC50 rises from 80 µM to 870 µM (11-fold). The first is the more potent here.

With `N#CCCn1nnc2c1NC(=O)CN=C2c1ccccc1Cl` [compound 17] the IC50 was 1000 µM.

From patent US4623646A, “PAF-antagonistic diazepines, methods of use” (Boehringer Ingelheim KG, priority 1984, dated 1986)
